target: T1, human TRPV1 (Homo sapiens, UniProt Q8NER1); experiment: Measurement of capsaicin-induced Ca influx in human TRPV1 transformed CHO cell line using FDSS-6000; assay type: cell-based; settings: concentration at which the capsaicin concentration-reaction curve is shifted two times to the right, human TRPV1 transformed CHO cells
T1 construct: expressed in transfected cells; host or cells: CHO-K1
Description: [Measurement of Capsaicin-Induced Ca Influx in Human TRPV1 Transformed CHO Cell Line]
(1) Establishment of Human TRPV1 Transformed CHO Cell Line
Human vanilloid receptor 1 (hTRPV1) cDNA was cloned from a human brain. The cloned hTRPV1 cDNA was incorporated in a pCAGGS vector. The gene of the vector was introduced to a CHO-K1 cell line, thus performing transformation. Clones obtained by limiting dilution were stimulated with capsaicin. Clones with a high responsiveness were selected using an increase in the Ca concentration as an indicator. The selected clones were used for the following experiment.
(2) Measurement of Ca Influx Using FDSS-6000
The human TRPV1 transformed CHO cells were seeded in a 96-well plate (with black walls and transparent bottoms, manufactured by Greiner) at a density of 40,000 cells per well. The cells were cultured at 37° C. in 5% CO2 for one night. A loading solution of FLIPR Calcium 3 assay kit (manufactured by Molecular Devices Corporation) containing 2.5 mmol/L of probenecid was then added to each of the wells in the same amount as the culture medium, and the cells were cultured at 37° C. for 60 minutes. After the cells were stimulated with capsaicin (1 nmol/L to 1 μmol/L), the change in the Ca concentration in the cells was measured using FDSS-6000 (λex: 480 nm, λem: 540 nm, manufactured by Hamamatsu Photonics K.K.) for three minutes. The integrated values of the increase rate of the Ca concentration in the cells were calculated for a group treated with the compounds of the present invention and a group treated with a medium, thus allowing capsaicin concentration-reaction curves to be obtained. A concentration (A2 value) of each of the compounds of the present invention, at which the capsaicin concentration-reaction curve obtained when the cells were treated with the medium was shifted two times to the right side, was calculated. The inhibiting effects of the test compounds were compared using this value as an indicator.
In the case where a compound of the present invention is an agonist, when the cells are treated with the compound of the present invention prior to the capsaicin stimulation, the Ca influx is observed. In Table 1, compounds of the present invention having an A2 value of less than 100 nM are represented by A, and compounds having an A2 value of 100 nM or more are represented by B. When the A2 values of the compounds of the present invention were measured by the above-described method, the compounds have an intensity of 1 μM or less.

T1 sequence (Q8NER1 whole entry): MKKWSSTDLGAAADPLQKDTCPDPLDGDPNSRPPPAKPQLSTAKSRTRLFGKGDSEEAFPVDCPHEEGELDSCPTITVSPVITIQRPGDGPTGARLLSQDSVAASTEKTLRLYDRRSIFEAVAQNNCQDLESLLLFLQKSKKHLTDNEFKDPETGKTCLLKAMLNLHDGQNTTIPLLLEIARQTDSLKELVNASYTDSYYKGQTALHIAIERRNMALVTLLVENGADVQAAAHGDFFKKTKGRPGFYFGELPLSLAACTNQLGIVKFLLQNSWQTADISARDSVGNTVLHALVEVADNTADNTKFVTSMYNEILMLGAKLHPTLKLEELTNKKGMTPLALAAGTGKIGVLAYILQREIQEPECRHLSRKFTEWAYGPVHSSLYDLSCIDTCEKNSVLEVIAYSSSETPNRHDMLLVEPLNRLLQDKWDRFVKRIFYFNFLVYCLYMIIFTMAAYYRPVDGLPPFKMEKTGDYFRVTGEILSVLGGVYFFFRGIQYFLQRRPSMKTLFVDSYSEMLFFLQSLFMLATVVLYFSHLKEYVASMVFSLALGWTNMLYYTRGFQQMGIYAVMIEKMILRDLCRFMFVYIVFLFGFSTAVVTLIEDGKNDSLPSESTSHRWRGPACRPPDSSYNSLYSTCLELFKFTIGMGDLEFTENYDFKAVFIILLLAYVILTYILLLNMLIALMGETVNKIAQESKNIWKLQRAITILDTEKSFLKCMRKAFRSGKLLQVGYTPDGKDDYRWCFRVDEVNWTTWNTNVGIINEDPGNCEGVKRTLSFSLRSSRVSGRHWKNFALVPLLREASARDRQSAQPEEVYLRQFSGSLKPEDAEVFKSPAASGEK

Compound | A2 VALUE
O=C(/C=C1\CCCOc2cc(C(F)(F)F)ccc21)Nc1cccc2[nH]ncc12 [Example 253, (E)-2-(8-trifluoromethyl-3,4-dihydrobenzo[b]oxepin-5(2H)-ylidene)-N-(1H-indazol-4-yl)acetamide] | A (compounds of the present invention having an A2 value of less than 100 nM are represented by A)
O=C(/C=C1\CCCOc2cc(C(F)(F)F)ccc21)NCc1nnc2ccccn12 [Example 40] | B (compounds having an A2 value of 100 nM or more are represented by B)
O=C(/C=C1\CCOc2cc(C(F)(F)F)ccc21)Nc1cccc2c1CC(O)CC2 (centres unmarked) [Example 71, (E)-2-(7-trifluoromethyl-chroman-4-ylidene)-N-(7-hydroxy-5,6,7,8-tetrahydronaphthalen-1-yl)acetamide] | A (compounds of the present invention having an A2 value of less than 100 nM are represented by A)
O=C(/C=C1\CCCN(CC2CCCC2)c2cc(C(F)(F)F)ccc21)Nc1ccc2cccnc2c1 [Example 197, (E)-2-(1-cyclopentylmethyl-8-trifluoromethyl-1,2,3,4-tetrahydro-5H-benzo[b]azepin-5-ylidene)-N-(quinolin-7-yl)acetamide] | A (compounds of the present invention having an A2 value of less than 100 nM are represented by A)
CCCCC(=O)N1CCC/C(=C\C(=O)Nc2cccc3c2CC(O)CC3)c2ccc(C(F)(F)F)cc21 (centres unmarked) [Example 190, (E)-2-(8-trifluoromethyl-1-pentanoyl-1,2,3,4-tetrahydro-5H-benzo[b]azepin-5-ylidene)-N-(7-hydroxy-5,6,7,8-tetrahydronaphthalen-1-yl)acetamide] | A (compounds of the present invention having an A2 value of less than 100 nM are represented by A)
O=C(/C=C1\CCOc2cc(OC(F)(F)C(F)F)ccc21)Nc1cccc2c1CC(O)CN2 (centres unmarked) [Example 213, (E)-2-(7-(1,1,2,2-tetrafluoroethoxy)-chroman-4-ylidene)-N-(3-hydroxy-1,2,3,4-tetrahydroquinolin-5-yl)acetamide] | A (compounds of the present invention having an A2 value of less than 100 nM are represented by A)
O=C(/C=C1\CCOc2cc(C(F)(F)F)c(F)cc21)Nc1cccc2c1CC(O)CN2 (centres unmarked) [Example 215, (E)-2-(6-fluoro-7-trifluoromethyl-chroman-4-ylidene)-N-(3-hydroxy-1,2,3,4-tetrahydroquinolin-5-yl)acetamide] | A (compounds of the present invention having an A2 value of less than 100 nM are represented by A)
CCCCC(=O)N1CCC/C(=C\C(=O)Nc2ccc3cccnc3c2)c2ccc(C(F)(F)F)cc21 [Example 192, (E)-2-(1-pentanoyl-8-trifluoromethyl-1,2,3,4-tetrahydro-5H-benzo[b]azepin-5-ylidene)-N-(quinolin-7-yl)acetamide] | A (compounds of the present invention having an A2 value of less than 100 nM are represented by A)
O=C(/C=C1\CCOc2cc(C(F)(F)F)ccc21)Nc1cccc2c1CC(O)CN2 (centres unmarked) [Example 122, (E)-N-(3-hydroxy-1,2,3,4-tetrahydroquinolin-5-yl)-2-(7-trifluoromethyl-chroman-4-ylidene)acetamide] | A (compounds of the present invention having an A2 value of less than 100 nM are represented by A)
O=C(/C=C1\CCOc2cc(C(F)(F)F)ccc21)Nc1cccc2ccc(O)cc12 [Example 120, (E)-N-(7-hydroxynaphthalen-1-yl)-2-(7-trifluoromethyl-chroman-4-ylidene)acetamide] | A (compounds of the present invention having an A2 value of less than 100 nM are represented by A)
O=C(/C=C1\CCN(c2ncc(CO)cc2Cl)c2cc(C(F)(F)F)ccc21)Nc1cccc2c1CC(O)CC2 (centres unmarked) [Example 200, (E)-2-(1-(3-chloro-5-hydroxymethyl-pyridin-2-yl)-7-trifluoromethyl-2,3-dihydroquinolin-4(1H)-ylidene)-N-(7-hydroxy-5,6,7,8-tetrahydronaphthalen-1-yl)acetamide] | A (compounds of the present invention having an A2 value of less than 100 nM are represented by A)
O=C(/C=C1\CCOc2cc(C(F)(F)F)ccc21)Nc1cccc2c1CC(O)CC2 (centres unmarked) [Example 70, (E)-2-(7-trifluoromethyl-chroman-4-ylidene)-N-(7-hydroxy-5,6,7,8-tetrahydronaphthalen-1-yl)acetamide] | A (compounds of the present invention having an A2 value of less than 100 nM are represented by A)
O=C(/C=C1\CCCOc2cc(C(F)(F)F)ccc21)Nc1cccc2cnccc12 [Example 11, (E)-2-(8-trifluoromethyl-3,4-dihydrobenzo[b]oxepin-5(2H)-ylidene)-N-(isoquinolin-5-yl)acetamide] | A (compounds of the present invention having an A2 value of less than 100 nM are represented by A)
O=C(/C=C1\CCCOc2cc(C(F)(F)F)ccc21)Nc1ccc(Oc2ccc(C(F)(F)F)cn2)cc1 [Example 27] | B (compounds having an A2 value of 100 nM or more are represented by B)
CCCCC(=O)N1CC/C(=C\C(=O)Nc2ccc3cccnc3c2)c2ccc(C(F)(F)F)cc21 [Example 50, (E)-2-(7-trifluoromethyl-2,3-dihydro-1-pentanoylquinolin-4(1H)-ylidene)-N-(quinolin-7-yl)acetamide] | A (compounds of the present invention having an A2 value of less than 100 nM are represented by A)
O=C(/C=C1\CCCOc2cc(C(F)(F)F)ccc21)Nc1ccc2c(c1)NC(=O)CC2 [Example 133, (E)-2-(8-trifluoromethyl-3,4-dihydrobenzo[b]oxepin-5(2H)-ylidene)-N-(3,4-dihydro-1H-quinolin-2-on-7-yl)acetamide] | A (compounds of the present invention having an A2 value of less than 100 nM are represented by A)
CN1CCCc2ccc(NC(=O)/C=C3\CCCOc4cc(C(F)(F)F)ccc43)cc21 [Example 17, (E)-2-(8-trifluoromethyl-3,4-dihydrobenzo[b]oxepin-5(2H)-ylidene)-N-(1,2,3,4-tetrahydro-1-methylquinolin-7-yl)acetamide] | A (compounds of the present invention having an A2 value of less than 100 nM are represented by A)
O=C(/C=C1\CCCOc2cc(C(F)(F)F)ccc21)Nc1ccc2c(c1)OCCO2 [Example 9, (E)-2-(8-trifluoromethyl-3,4-dihydrobenzo[b]oxepin-5(2H)-ylidene)-N-(2,3-dihydrobenzo[b][1,4]dioxin-6-yl)acetamide] | A (compounds of the present invention having an A2 value of less than 100 nM are represented by A)
O=C(/C=C1\CCOc2cc(C(F)(F)F)ccc21)Nc1cccc2c1CC(O)CO2 (centres unmarked) [Example 125, (E)-N-(3-hydroxy-chroman-5-yl)-2-(7-trifluoromethyl-chroman-4-ylidene)acetamide] | A (compounds of the present invention having an A2 value of less than 100 nM are represented by A)
O=C(/C=C1\CCCOc2cc(C(F)(F)F)ccc21)Nc1nc(-c2ccccc2)cs1 [Example 47, (E)-2-(8-trifluoromethyl-3,4-dihydrobenzo[b]oxepin-5(2H)-ylidene)-N-(4-phenylthiazolo-2-yl)acetamide] | B (compounds having an A2 value of 100 nM or more are represented by B)
O=C(/C=C1\CCCOc2cc(C(F)(F)F)ccc21)Nc1ccc2c(c1)C(=O)OC2 [Example 24, (E)-2-(8-trifluoromethyl-3,4-dihydrobenzo[b]oxepin-5(2H)-ylidene)-N-(1,3-dihydro-1-oxoisobenzofuran-6-yl)acetamide] | A (compounds of the present invention having an A2 value of less than 100 nM are represented by A)
CC(F)(F)CC(=O)N1CC/C(=C\C(=O)Nc2cccc3c2CC(O)CC3)c2ccc(C(F)(F)F)cc21 (centres unmarked) [Example 116, (E)-2-(1-(3,3-difluorobutanoyl)-7-trifluoromethyl-2,3-dihydroquinolin-4(1H)-ylidene)-N-(7-hydroxy-5,6,7,8-tetrahydronaphthalen-1-yl)acetamide] | A (compounds of the present invention having an A2 value of less than 100 nM are represented by A)
O=C(/C=C1\CCCOc2cc(C(F)(F)F)ccc21)Nc1cccc2c1CC(O)CC2 (centres unmarked) [Example 64, (E)-2-(8-trifluoromethyl-3,4-dihydrobenzo[b]oxepin-5-(2H)-ylidene)-N-(7-hydroxy-5,6,7,8-tetrahydronaphthalen-1-yl)acetamide] | A (compounds of the present invention having an A2 value of less than 100 nM are represented by A)
